Legend:
Assay in all cases: combination Emax (second highest fraction inhibited in the dose matrix, 72 h); higher = more inhibition; extreme values may be limits of the assay
[1] = tested on: 23132-87 (Gastric Carcinoma)
Procedure, shortened: (§1)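 Cell lines grown in DMEM/F12 or RPMI with 10% FBS were plated in 1536-well plates and held 24 hours at 37°C, 5% CO2 before 72 hours of exposure to two-drug dose matrices, with DMSO typically at 0.2%. CellTiter-Glo 2.0 luminescence gave viability, which was converted to inhibition. Vehicle wells were set to 0 and blank wells to 1. Combination Emax is the second-highest inhibition in the matrix, and Bliss excess is the observed combination effect minus the expected EA + EB − EA·EB, where EA and EB are the single-agent effects.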

[2] = tested on: A2058 (Melanoma)
Procedure, shortened: as §1

[3] = tested on: CAL-120 (Breast Carcinoma)
Procedure, shortened: as §1

[4] = tested on: COLO-680N (Esophageal Squamous Cell Carcinoma)
Procedure, shortened: as §1

[5] = tested on: GB-1 (Glioblastoma)
Procedure, shortened: as §1

[6] = tested on: GP5d (Colorectal Carcinoma)
Procedure, shortened: as §1

[7] = tested on: HCT-15 (Colorectal Carcinoma)
Procedure, shortened: as §1

[8] = tested on: IST-MES1 (Mesothelioma)
Procedure, shortened: as §1

[9] = tested on: LB996-RCC (Kidney Carcinoma)
Procedure, shortened: as §1

[10] = tested on: LK-2 (Squamous Cell Lung Carcinoma)
Procedure, shortened: as §1

[11] = tested on: MKN45 (Gastric Carcinoma)
Procedure, shortened: as §1

[12] = tested on: NCI-H23 (Lung Adenocarcinoma)
Procedure, shortened: as §1

[13] = tested on: OVMIU (Ovarian Carcinoma)
Procedure, shortened: as §1

[14] = tested on: PSN1 (Pancreatic Carcinoma)
Procedure, shortened: as §1

[15] = tested on: RERF-GC-1B (Gastric Carcinoma)
Procedure, shortened: as §1

[16] = tested on: RERF-LC-Sq1 (Squamous Cell Lung Carcinoma)
Procedure, shortened: as §1

[17] = tested on: SHP-77 (Small Cell Lung Carcinoma)
Procedure, shortened: as §1

[18] = tested on: SK-PN-DW (Other Solid Carcinomas)
Procedure, shortened: as §1

[19] = tested on: WM278 (Melanoma)
Procedure, shortened: as §1

[20] = tested on: WM793B (Melanoma)
Procedure, shortened: as §1

SMILES | combination Emax [1] | combination Emax [2] | combination Emax [3] | combination Emax [4] | combination Emax [5] | combination Emax [6] | combination Emax [7] | combination Emax [8] | combination Emax [9] | combination Emax [10] | combination Emax [11] | combination Emax [12] | combination Emax [13] | combination Emax [14] | combination Emax [15] | combination Emax [16] | combination Emax [17] | combination Emax [18] | combination Emax [19] | combination Emax [20]
CN(C)CCCOc1ccc(-c2ccc3ncc4c(c3c2)n(C2CCOCC2)c(=O)n4C)cn1 [AZD0156] + C=CCn1c(=O)c2cnc(Nc3ccc(N4CCN(C)CC4)cc3)nc2n1-c1cccc(C(C)(C)O)n1 [AZD1775] (first compound max 1 µM, partner max 1 µM) | 0.645 | 0.121 | 0.326 | 0.196 | 0.263 | 0.664 | 0.726 | 0.207 | 0.801 | 0.898 | 0.701 | 0.815 | 0.519 | 0.462 | 0.772 | 0.758 | 0.419 | 0.871 | 0.228 | 0.452
CN(C)CCCOc1ccc(-c2ccc3ncc4c(c3c2)n(C2CCOCC2)c(=O)n4C)cn1 [AZD0156] + CCN(CCO)CCCOc1ccc2c(Nc3cc(CC(=O)Nc4cccc(F)c4)[nH]n3)ncnc2c1 [AZD2811] (first compound max 1 µM, 7x7, partner max 1 µM) | 0.118 | 0.0924 | 0.102 | 0.0884 | 0.0845 | 0.456 | 0.317 | 0.172 | 0.362 | 0.834 | 0.342 | 0.151 | 0.144 | 0.362 | 0.423 | 0.306 | 0.237 | 0.605 | 0.0859 | 0.323
CN(C)CCCOc1ccc(-c2ccc3ncc4c(c3c2)n(C2CCOCC2)c(=O)n4C)cn1 [AZD0156] + C[C@@H]1COCCN1C2=NC(=NC(=C2)C3(CC3)[S@](=N)(=O)C)C4=C5C=CNC5=NC=C4 [AZD6738] (first compound max 1 µM, 7x7, partner max 10 µM) | 0.873 | 0.225 | 0.437 | 0.267 | 0.392 | 0.883 | 0.915 | 0.176 | 0.581 | 0.501 | 0.791 | 0.786 | 0.396 | 0.504 | 0.491 | 0.843 | 0.665 | 0.928 | 0.341 | 0.891
CN(C)CCCOc1ccc(-c2ccc3ncc4c(c3c2)n(C2CCOCC2)c(=O)n4C)cn1 [AZD0156] + O=C(c1cc(Cc2n[nH]c(=O)c3ccccc23)ccc1F)N1CCN(C(=O)C2CC2)CC1 [Olaparib] (first compound max 3 µM, partner max 3 µM) | 0.644 | 0.37 | 0.29 | 0.16 | 0.238 | 0.297 | 0.378 | 0.212 | 0.38 | 0.372 | 0.356 | 0.117 | 0.347 | 0.228 | 0.317 | 0.418 | 0.209 | 0.289 | 0.209 | 0.197
C=CCn1c(=O)c2cnc(Nc3ccc(N4CCN(C)CC4)cc3)nc2n1-c1cccc(C(C)(C)O)n1 [AZD1775] + C1CN(CCC1(C(=O)N[C@@H](CCO)C2=CC=C(C=C2)Cl)N)C3=NC=NC4=C3C=CN4 [Capivasertib] (first compound max 3 µM, partner max 3 µM) | 0.829 | 0.886 | 0.727 | 0.306 | 0.625 | 0.973 | 0.896 | 0.292 | 0.783 | 0.941 | 0.741 | 0.908 | 0.749 | 0.763 |  | 0.844 | 0.885 | 0.783 | 0.389 | 0.606
C=CCn1c(=O)c2cnc(Nc3ccc(N4CCN(C)CC4)cc3)nc2n1-c1cccc(C(C)(C)O)n1 [AZD1775] + C[C@@H]1COCCN1C2=NC(=NC(=C2)C3(CC3)[S@](=N)(=O)C)C4=C5C=CNC5=NC=C4 [AZD6738] (first compound max 1 µM, partner max 10 µM) | 0.918 | 0.413 | 0.583 | 0.529 | 0.595 | 0.927 | 0.933 | 0.597 | 0.84 | 0.882 | 0.787 | 0.913 | 0.731 | 0.764 | 0.851 | 0.859 | 0.827 | 0.955 | 0.44 | 0.875
C=CCn1c(=O)c2cnc(Nc3ccc(N4CCN(C)CC4)cc3)nc2n1-c1cccc(C(C)(C)O)n1 [AZD1775] + O=C(c1cc(Cc2n[nH]c(=O)c3ccccc23)ccc1F)N1CCN(C(=O)C2CC2)CC1 [Olaparib] (first compound max 1 µM, partner max 10 µM) | 0.605 | 0.284 | 0.396 | 0.283 | 0.318 | 0.713 | 0.443 | 0.334 | 0.845 | 0.914 | 0.775 | 0.761 | 0.569 | 0.478 | 0.693 | 0.675 | 0.443 | 0.913 | 0.209 | 0.501
CCN(CCO)CCCOc1ccc2c(Nc3cc(CC(=O)Nc4cccc(F)c4)[nH]n3)ncnc2c1 [AZD2811] + C=CCn1c(=O)c2cnc(Nc3ccc(N4CCN(C)CC4)cc3)nc2n1-c1cccc(C(C)(C)O)n1 [AZD1775] (first compound max 1 µM, partner max 1 µM) | 0.656 | 0.15 | 0.368 | 0.178 | 0.332 | 0.735 | 0.743 | 0.27 | 0.842 | 0.887 | 0.631 | 0.829 | 0.463 | 0.401 | 0.816 | 0.68 | 0.415 | 0.899 | 0.171 | 0.497
CN(CCO)CC[C@H](CSc1ccccc1)Nc1ccc(S(=O)(=O)NC(=O)c2ccc(N3CCC([C@@H](O)c4ccccc4-c4ccc(Cl)cc4)CC3)cc2)cc1S(=O)(=O)C(F)(F)F [AZD4320] + C1CN(CCC1(C(=O)N[C@@H](CCO)C2=CC=C(C=C2)Cl)N)C3=NC=NC4=C3C=CN4 [Capivasertib] (first compound max 1 µM, 7x7, partner max 3 µM) | 0.221 | 0.191 |  | 0.0496 | 0.117 | 0.72 | 0.174 | 0.0905 | 0.494 | 0.655 | 0.456 | 0.093 | 0.876 | 0.276 | 0.496 | 0.667 |  | 0.482 | 0.599 | 0.281
COc1nnc2ccc(N3CCC(c4ccc(OCCN5CCN(C)C(=O)[C@H]5C)cc4)CC3)nn12 [AZD5153] + CN(CC[C@H](CSC1=CC=CC=C1)NC2=C(C=C(C=C2)S(=O)(=O)NC(=O)C3=CC=C(C=C3)N4CCC(CC4)[C@H](C5=CC=CC=C5C6=CC=C(C=C6)Cl)O)S(=O)(=O)C(F)(F)F)CCO [AZD4320] (first compound max 1 µM, 7x7, partner max 1 µM) | 0.349 | 0.577 | 0.919 |  | 0.292 | 0.727 | 0.81 |  | 0.539 |  |  | 0.766 |  |  | 0.813 | 0.706 |  |  | 0.829 | 0.508
CC(=O)c1c(C)c2cnc(Nc3ccc(N4CCNCC4)cn3)nc2n(C2CCCC2)c1=O [Palbociclib] + CN(CC[C@H](CSC1=CC=CC=C1)NC2=C(C=C(C=C2)S(=O)(=O)NC(=O)C3=CC=C(C=C3)N4CCC(CC4)[C@H](C5=CC=CC=C5C6=CC=C(C=C6)Cl)O)S(=O)(=O)C(F)(F)F)CCO [AZD4320] (first compound max 10 µM, 7x7, partner max 1 µM) | 0.578 | 0.323 | 0.815 |  | 0.209 | 0.592 | 0.726 |  | 0.729 |  |  | 0.312 |  |  | 0.35 | 0.575 |  |  | 0.711 | 0.474
CCc1c2c(nc3ccc(O)cc13)-c1cc3c(c(=O)n1C2)COC(=O)[C@]3(O)CC [SN-38] + O=C(c1cc(Cc2n[nH]c(=O)c3ccccc23)ccc1F)N1CCN(C(=O)C2CC2)CC1 [Olaparib] (first compound max 0.3 µM, 7x7, partner max 10 µM) | 0.814 | 0.22 | 0.7 | 0.386 | 0.781 | 0.704 | 0.852 | 0.63 | 0.854 | 0.456 | 0.847 |  | 0.479 | 0.753 |  | 0.672 | 0.567 | 0.909 | 0.627 | 
C[C@@H](c1ccc2nccn2c1)n1nnc2ncc(-c3cnn(C)c3)nc21 [Savolitinib] + CN(CC[C@H](CSC1=CC=CC=C1)NC2=C(C=C(C=C2)S(=O)(=O)NC(=O)C3=CC=C(C=C3)N4CCC(CC4)[C@H](C5=CC=CC=C5C6=CC=C(C=C6)Cl)O)S(=O)(=O)C(F)(F)F)CCO [AZD4320] (first compound max 1 µM, 7x7, partner max 1 µM) | 0.338 | 0.192 | 0.65 |  | 0.15 | 0.29 | 0.132 |  | 0.19 |  |  | 0.316 |  |  | 0.367 | 0.238 |  |  | 0.55 | 0.137
